This passage reports Kd results from US20250064941A1, “SIGLEC LIGANDS, CONJUGATES, AND METHODS OF USE THEREOF” (Osprey Biopharmaceuticals, Inc., priority 2023, published 2025).

For test [1], the target named is T1, mouse Siglec-2-Fc-Avi (CD22) (Mus musculus, UniProt P35329).
T1 construct: made in house
T1 sequence (P35329 22-708 limits assumed): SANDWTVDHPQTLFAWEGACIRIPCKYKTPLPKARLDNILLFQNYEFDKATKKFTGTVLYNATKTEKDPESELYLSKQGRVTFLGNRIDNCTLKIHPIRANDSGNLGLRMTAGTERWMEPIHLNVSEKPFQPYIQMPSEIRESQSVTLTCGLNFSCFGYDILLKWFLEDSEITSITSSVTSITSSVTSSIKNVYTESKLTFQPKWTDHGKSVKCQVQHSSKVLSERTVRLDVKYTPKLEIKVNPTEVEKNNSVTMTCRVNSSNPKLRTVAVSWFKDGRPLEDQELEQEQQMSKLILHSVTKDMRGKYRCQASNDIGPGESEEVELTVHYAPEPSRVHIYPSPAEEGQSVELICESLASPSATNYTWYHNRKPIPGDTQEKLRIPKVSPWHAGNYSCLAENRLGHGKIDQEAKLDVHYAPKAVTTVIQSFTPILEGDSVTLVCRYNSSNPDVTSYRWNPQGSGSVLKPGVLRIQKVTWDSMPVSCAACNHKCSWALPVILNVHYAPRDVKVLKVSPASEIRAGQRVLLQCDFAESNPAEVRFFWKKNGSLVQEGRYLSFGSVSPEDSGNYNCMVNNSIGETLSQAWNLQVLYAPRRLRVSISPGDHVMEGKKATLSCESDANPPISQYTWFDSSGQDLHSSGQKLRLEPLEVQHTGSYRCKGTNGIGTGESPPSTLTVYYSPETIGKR
As to the kind of experiment: SPR binding affinity to mouse CD22. The note with it: steady-state analysis. An outline of the steps:
(§1)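 SialoExo pretreatment, 4 h 37° C.; biotinylated CD22 on SA chip, Biacore 8K. Buffer 10 mM HEPES, 150 mM NaCl, 0.05% Tween-20, pH 7.5, 1% DMSO. Dissociation 120 s; solvent-corrected; steady-state KD.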
For orientation: SPR reads the build-up and loss of mass on a sensor chip optically.

Test [2] addresses cynomolgus Siglec-2/CD22 (Macaca fascicularis, UniProt A0A2K5WCZ6). As to the kind of experiment: biochemical. It is filed as binding. The note with it: SPR, steady-state analysis; read-out: Affinity cyno CD22. The essentials:
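SPR with desialylated (SialoExo, 4 h, 37° C.) cynomolgus CD22 amine-coupled to a CM5 chip. Running buffer 10 mM HEPES, 150 mM NaCl, 0.05% Tween-20, pH 7.5, 1% DMSO, with solvent correction; 120 s dissociation. Affinities from steady-state analysis.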

Test [3] addresses T2, human Siglec-2/CD22 protein (Homo sapiens, UniProt P20273).
T2 construct: purchased Acro Biosystems SI2-H82E3
T2 sequence (P20273 20-847): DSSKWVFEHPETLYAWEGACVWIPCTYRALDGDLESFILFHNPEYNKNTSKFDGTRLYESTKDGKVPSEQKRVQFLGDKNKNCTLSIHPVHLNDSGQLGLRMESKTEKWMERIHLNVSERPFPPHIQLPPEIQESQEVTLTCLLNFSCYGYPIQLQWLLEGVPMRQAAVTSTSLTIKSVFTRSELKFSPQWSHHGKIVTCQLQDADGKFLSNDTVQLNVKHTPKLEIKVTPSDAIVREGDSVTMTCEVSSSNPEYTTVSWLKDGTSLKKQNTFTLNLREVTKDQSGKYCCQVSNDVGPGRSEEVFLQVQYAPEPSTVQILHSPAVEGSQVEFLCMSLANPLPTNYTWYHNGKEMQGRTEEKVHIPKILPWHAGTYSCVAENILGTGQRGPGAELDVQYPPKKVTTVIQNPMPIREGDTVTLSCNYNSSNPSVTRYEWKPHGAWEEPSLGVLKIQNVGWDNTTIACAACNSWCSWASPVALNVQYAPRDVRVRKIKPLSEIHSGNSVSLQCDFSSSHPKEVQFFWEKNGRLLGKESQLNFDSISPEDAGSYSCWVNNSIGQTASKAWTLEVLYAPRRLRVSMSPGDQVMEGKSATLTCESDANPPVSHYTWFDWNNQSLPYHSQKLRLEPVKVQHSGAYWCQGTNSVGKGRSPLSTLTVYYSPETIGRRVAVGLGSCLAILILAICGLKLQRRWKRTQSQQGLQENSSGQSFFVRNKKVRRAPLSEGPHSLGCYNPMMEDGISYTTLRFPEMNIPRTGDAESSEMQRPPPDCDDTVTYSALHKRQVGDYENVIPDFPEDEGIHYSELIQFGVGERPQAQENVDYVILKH
As to the kind of experiment: SPR binding affinity to human CD22. The note with it: steady-state analysis. The essentials:
as §1

pKd: −log10 of the molar value.

Chain of cynomolgus Siglec-2/CD22 (A0A2K5WCZ6 entry or part of it): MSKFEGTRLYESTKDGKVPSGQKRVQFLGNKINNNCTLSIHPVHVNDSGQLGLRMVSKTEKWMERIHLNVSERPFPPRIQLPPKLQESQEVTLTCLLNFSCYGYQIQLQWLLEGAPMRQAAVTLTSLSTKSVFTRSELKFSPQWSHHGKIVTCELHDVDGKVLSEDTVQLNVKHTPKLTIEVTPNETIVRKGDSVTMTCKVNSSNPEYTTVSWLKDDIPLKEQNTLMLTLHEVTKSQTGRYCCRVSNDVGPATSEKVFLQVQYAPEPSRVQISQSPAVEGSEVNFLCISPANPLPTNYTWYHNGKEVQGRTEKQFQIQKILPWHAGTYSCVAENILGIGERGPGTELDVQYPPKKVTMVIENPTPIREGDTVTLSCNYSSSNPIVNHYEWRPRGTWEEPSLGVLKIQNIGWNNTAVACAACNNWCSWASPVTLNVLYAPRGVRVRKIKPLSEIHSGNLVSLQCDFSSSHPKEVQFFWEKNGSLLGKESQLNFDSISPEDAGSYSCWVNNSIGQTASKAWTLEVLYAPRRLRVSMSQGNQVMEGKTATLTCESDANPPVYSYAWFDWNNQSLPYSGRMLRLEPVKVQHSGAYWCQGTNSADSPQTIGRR

Consider `C#CCCCCCCO[C@]1(C(=O)O)C[C@H](O)[C@@H](NC(=O)CO)[C@H]([C@H](O)[C@H](O)CNC(=O)Cc2ccc(C(F)F)cc2)O1` [Compound 212, (2R,4S,5R,6R)-6-((1R,2R)-3-(2-(4-(difluoromethyl)phenyl)acetamido)-1,2-dihydroxypropyl)-4-hydroxy-5-(2-hydroxyacetamido)-2-(oct-7-yn-1-yloxy)tetrahydro-2H-pyran-2-carboxylic acid], for which the pKd in test [1], in test [2] and in test [3] was greater than 6.00 in each case.
Consider `C#CCOCCNC(=O)CCCCCCO[C@]1(C(=O)O)C[C@H](O)[C@@H](NC(=O)CO)[C@H]([C@H](O)[C@H](O)CNC(=O)Cc2ccc(C(F)F)cc2)O1` [Compound 213, (2R,4S,5R,6R)-6-((1R,2R)-3-(2-(4-(difluoromethyl)phenyl)acetamido)-1,2-dihydroxypropyl)-4-hydroxy-5-(2-hydroxyacetamido)-2-((7-oxo-7-((2-(prop-2-yn-1-yloxy)ethyl)amino)heptyl)oxy)tetrahydro-2H-pyran-2-carboxylic acid], for which the pKd in test [1], in test [2] and in test [3] was greater than 6.00 in each case.
With `C#CCOCCNc1c(NCCCCCCO[C@]2(C(=O)O)C[C@H](O)[C@@H](NC(=O)CO)[C@H]([C@H](O)[C@H](O)CNC(=O)Cc3ccc(C(F)F)cc3)O2)c(=O)c1=O` [Compound 216, (2R,4S,5R,6R)-6-((1R,2R)-3-(2-(4-(difluoromethyl)phenyl)acetamido)-1,2-dihydroxypropyl)-2-((6-((3,4-dioxo-2-((2-(prop-2-yn-1-yloxy)ethyl)amino)cyclobut-1-en-1-yl)amino)hexyl)oxy)-4-hydroxy-5-(2-hydroxyacetamido)tetrahydro-2H-pyran-2-carboxylic acid], the pKd in test [1], in test [2] and in test [3] was greater than 6.00 each time.
`C#CCCC(=O)NCCCCCCO[C@]1(C(=O)O)C[C@H](O)[C@@H](NC(=O)CO)[C@H]([C@H](O)[C@H](O)CNC(=O)Cc2ccc(Cl)cc2)O1` [Compound 217, (2R,4S,5R,6R)-6-((1R,2R)-3-(2-(4-chlorophenyl)acetamido)-1,2-dihydroxypropyl)-4-hydroxy-5-(2-hydroxyacetamido)-2-((6-(pent-4-ynamido)hexyl)oxy)tetrahydro-2H-pyran-2-carboxylic acid]: the pKd in test [1] is 5.00 to 6.00; in test [2] it was greater than 6.00; in test [3], greater than 6.00.
As for `C#CCOCCNC(=O)NCCCCCCO[C@]1(C(=O)O)C[C@H](O)[C@@H](NC(=O)CO)[C@H]([C@H](O)[C@H](O)CNC(=O)Cc2ccc(Cl)cc2)O1` [Compound 218, (2R,4S,5R,6R)-6-((1R,2R)-3-(2-(4-chlorophenyl)acetamido)-1,2-dihydroxypropyl)-4-hydroxy-5-(2-hydroxyacetamido)-2-((6-(3-(2-(prop-2-yn-1-yloxy)ethyl)ureido)hexyl)oxy)tetrahydro-2H-pyran-2-carboxylic acid], the pKd in test [1], in test [2] and in test [3] was greater than 6.00 in each case.
With `CC(=O)NCCOCCOCCOCCOCCC(=O)NCCCCCCO[C@]1(C(=O)O)C[C@H](O)[C@@H](NC(=O)CO)[C@H]([C@H](O)[C@H](O)CNC(=O)Cc2ccc(-c3ccccc3)cc2)O1` [Compound 219, (2R,4S,5R,6R)-6-((1R,2R)-3-(2-([1,1′-biphenyl]-4-yl)acetamido)-1,2-dihydroxypropyl)-2-((2,18-dioxo-6,9,12,15-tetraoxa-3,19-diazapentacosan-25-yl)oxy)-4-hydroxy-5-(2-hydroxyacetamido)tetrahydro-2H-pyran-2-carboxylic acid], the pKd in test [1], in test [2] and in test [3] was greater than 6.00 each time.
For `C#CCNc1c(NCCCCCCO[C@]2(C(=O)O)C[C@H](O)[C@@H](NC(=O)CO)[C@H]([C@H](O)[C@H](O)CNC(=O)Cc3ccc(C(F)F)cc3)O2)c(=O)c1=O` [Compound 220, (2R,4S,5R,6R)-6-((1R,2R)-3-(2-(4-(difluoromethyl)phenyl)acetamido)-1,2-dihydroxypropyl)-2-((6-((3,4-dioxo-2-(prop-2-yn-1-ylamino)cyclobut-1-en-1-yl)amino)hexyl)oxy)-4-hydroxy-5-(2-hydroxyacetamido)tetrahydro-2H-pyran-2-carboxylic acid], the pKd in test [1], in test [2] and in test [3] was greater than 6.00 in each case.
Regarding `C#CCNc1c(NCCCCCCO[C@]2(C(=O)O)C[C@H](O)[C@@H](NC(=O)CO)[C@H]([C@H](O)[C@H](O)CNC(=O)Cc3ccc(-c4ccccc4)cc3)O2)c(=O)c1=O` [Compound 221, (2R,4S,5R,6R)-6-((1R,2R)-3-(2-([1,1′-biphenyl]-4-yl)acetamido)-1,2-dihydroxypropyl)-2-((6-((3,4-dioxo-2-(prop-2-yn-1-ylamino)cyclobut-1-en-1-yl)amino)hexyl)oxy)-4-hydroxy-5-(2-hydroxyacetamido)tetrahydro-2H-pyran-2-carboxylic acid], the pKd in test [1], in test [2] and in test [3] was greater than 6.00 throughout.
Turning to `CCCNC(=O)CCOCCOCCOCCn1cc(CCOc2ccc(CO[C@]3(C(=O)O)C[C@H](O)[C@@H](NC(N)=O)[C@H]([C@H](O)[C@H](O)CNC(=O)Cc4ccc(Cl)cc4)O3)cc2)nn1` [Compound 222, (2R,4S,5R,6R)-6-((1R,2R)-3-(2-(4-chlorophenyl)acetamido)-1,2-dihydroxypropyl)-4-hydroxy-2-((4-(2-(1-(12-oxo-3,6,9-trioxa-13-azahexadecyl)-1H-1,2,3-triazol-4-yl)ethoxy)benzyl)oxy)-5-ureidotetrahydro-2H-pyran-2-carboxylic acid], the pKd in test [1], in test [2] and in test [3] was greater than 6.00 each time.
For the compound `C#CCOCCCCCCO[C@]1(C(=O)O)C[C@H](O)[C@@H](NC(=O)C(N)=O)[C@H]([C@H](O)[C@H](O)CNC(=O)Cc2ccc(Cl)cc2)O1` [Compound 223, (2R,4S,5R,6R)-5-(2-amino-2-oxoacetamido)-6-((1R,2R)-3-(2-(4-chlorophenyl)acetamido)-1,2-dihydroxypropyl)-4-hydroxy-2-((6-(prop-2-yn-1-yloxy)hexyl)oxy)tetrahydro-2H-pyran-2-carboxylic acid], the pKd in test [1] is 5.00 to 6.00; in test [2], 5.00 to 6.00; in test [3], greater than 6.00.
With `C#CCNc1c(NCCCCCCO[C@]2(C(=O)O)C[C@H](O)[C@@H](NC(N)=O)[C@H]([C@H](O)[C@H](O)CNC(=O)Cc3ccc(-c4ccccc4)cc3)O2)c(=O)c1=O` [Compound 224, (2R,4S,5R,6R)-6-((1R,2R)-3-(2-([1,1′-biphenyl]-4-yl)acetamido)-1,2-dihydroxypropyl)-2-((6-((3,4-dioxo-2-(prop-2-yn-1-ylamino)cyclobut-1-en-1-yl)amino)hexyl)oxy)-4-hydroxy-5-ureidotetrahydro-2H-pyran-2-carboxylic acid], the pKd in test [1], in test [2] and in test [3] was greater than 6.00 each time.
